# Residues, ends and D or L forms follow the SMILES beside them. *: point of attachment. Palmitoyl = CCCCCCCCCCCCCCCC(=O)*
# Conditions: concentration about 10 mg/mL
# Method: The two molecules can be dissolved in pH-adjusted water at a concentration of about 2-30 mg/ml, and preferably about 10 mg/mL.
# The molecules were then dissolved in water at a concentration of 10 mg/mL, adjusting the pH to improve solubility. […] In the case of molecule 1, the pH was raised to about pH 8 with 2M and 100 mM KOH, then back-titrated to pH 7.
smiles,measurement,value
CCCCCCCCCCCCCCCC(=O)N[C@@H](C)C(=O)N[C@@H](C)C(=O)N[C@@H](C)C(=O)N[C@@H](C)C(=O)NCC(=O)NCC(=O)NCC(=O)N[C@@H](CCCCN)C(=O)N[C@@H](Cc1ccc(O)cc1)C(=O)N[C@H](C(=O)NCC(=O)N[C@@H](CO)C(=O)N[C@@H](CCCNC(=N)N)C(N)=O)[C@@H](C)CC [Molecule 2] (Palmitoyl-AAAAGGGKYIGSR-NH2),appearance of solution in pH-adjusted water,translucent
